Columns and labels:
[1] = biological target: T1, MTHFD1 recombinant human enzyme (Homo sapiens, UniProt P11586); experiment: MTHFD1 inhibition assay (NAD(P)H-Glo luminescence); conditions: MTHFD1 IC50, recombinant human enzyme 200 nM, NADP, band
T1 sequence (P11586 2-291 limits assumed): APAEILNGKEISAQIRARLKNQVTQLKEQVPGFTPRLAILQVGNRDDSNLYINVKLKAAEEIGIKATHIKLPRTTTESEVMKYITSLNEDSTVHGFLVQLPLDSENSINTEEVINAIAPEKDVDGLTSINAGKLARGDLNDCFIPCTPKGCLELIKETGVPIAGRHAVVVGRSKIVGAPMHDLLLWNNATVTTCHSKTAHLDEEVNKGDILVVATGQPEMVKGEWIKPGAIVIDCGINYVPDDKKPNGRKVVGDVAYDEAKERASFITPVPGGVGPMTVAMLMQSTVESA

[2] = biological target: T2, MTHFD2 recombinant human enzyme (Homo sapiens, UniProt P13995); experiment: MTHFD2 inhibition assay (NAD(P)H-Glo luminescence); conditions: for MTHFD1/MTHFD2 IC50 ratio: selectivity of MTHFD2 inhibition over MTHFD1, band
T2 sequence (P13995 36-350): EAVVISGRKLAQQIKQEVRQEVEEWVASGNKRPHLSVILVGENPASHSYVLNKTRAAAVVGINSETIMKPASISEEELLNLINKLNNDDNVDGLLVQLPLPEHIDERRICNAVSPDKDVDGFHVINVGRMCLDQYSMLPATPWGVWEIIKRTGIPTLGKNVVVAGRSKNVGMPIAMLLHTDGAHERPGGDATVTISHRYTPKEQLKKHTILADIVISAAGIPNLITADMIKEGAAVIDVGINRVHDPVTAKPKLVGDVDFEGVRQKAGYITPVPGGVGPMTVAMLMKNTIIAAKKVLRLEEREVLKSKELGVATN

Structure (SMILES): COC[C@H]1CN(c2cc(C)c3c4c(c(=O)oc3c2C)CN(C(=O)c2ccc(C(=O)NS(=O)(=O)N(C)C)c(N(C)C3CCC3)c2)CC4)CCN1C [Example 55, (R)-2-(cyclobutyl(methyl)amino)-N-(N,N-dimethylsulfamoyl)-4-(8-(3-(methoxymethyl)-4-methylpiperazin-1-yl)-7,10-dimethyl-5-oxo-1,3,4,5-tetrahydro-2H-chromeno[3,4-c]pyridine-3-carbonyl)benzamide]
- IC50 [1]: 10 to 100 nM
- IC50 [2]: 1 to 10 nM
- MTHFD1/MTHFD2 IC50 ratio [2]: G (^ 3 to 9.0)

Structure (SMILES): COC[C@H]1CN(c2ccc3c4c(c(=O)oc3c2C)CN(C(=O)c2ccc(C(=O)NS(=O)(=O)N(C)C)c(OC3C[C@@H]5C[C@@H]5C3)c2)CC4)CCN1C (mixture of isomers) [Example 113, 2-(bicyclo[3.1.0]hexan-3-yloxy)-N-(N,N-dimethylsulfamoyl)-4-(8-((R)-3-(methoxymethyl)-4-methylpiperazin-1-yl)-7-methyl-5-oxo-1,3,4,5-tetrahydro-2H-chromeno[3,4-c]pyridine-3-carbonyl)benzamide]
- IC50 [1]: 10 to 100 nM
- IC50 [2]: 100 to 1000 nM
- MTHFD1/MTHFD2 IC50 ratio [2]: F (<3)

Structure (SMILES): COC[C@H]1CN(c2cc(C)c3c4c(c(=O)oc3c2)CN(C(=O)c2ccc(C(=O)NS(=O)(=O)N3CCCC3)c(OC3CCCC3)c2F)CC4)CCN1C [Example 187, (R)-2-(cyclopentyloxy)-3-fluoro-4-(8-(3-(methoxymethyl)-4-methylpiperazin-1-yl)-10-methyl-5-oxo-1,3,4,5-tetrahydro-2H-chromeno[3,4-c]pyridine-3-carbonyl)-N-(pyrrolidin-1-ylsulfonyl)benzamide]
- IC50 [1]: > 5000 nM
- IC50 [2]: 100 to 1000 nM
- MTHFD1/MTHFD2 IC50 ratio [2]: H (>9.0 to 30)

Structure (SMILES): COC[C@H]1CN(c2ccc3c4c(c(=O)oc3c2C)CN(C(=O)c2cc(N3CC5CC5C3)c(C(=O)NS(=O)(=O)C3(C)CC3)c(C(F)(F)F)c2)CC4)CCN1C (stereo partly drawn) [Example 104, 2-(3-azabicyclo[3.1.0]hexan-3-yl)-4-(8-((R)-3-(methoxymethyl)-4-methylpiperazin-1-yl)-7-methyl-5-oxo-1,3,4,5-tetrahydro-2H-chromeno[3,4-c]pyridine-3-carbonyl)-N-((1-methylcyclopropyl)sulfonyl)-6-(trifluoromethyl)benzamide]
- IC50 [1]: > 5000 nM
- IC50 [2]: 100 to 1000 nM
- MTHFD1/MTHFD2 IC50 ratio [2]: H (>9.0 to 30)

Structure (SMILES): COC[C@H]1CN(c2cc(C)c3c4c(c(=O)oc3c2C)CN(C(=O)c2cc(OC3CCC3)c(C(=O)NS(=O)(=O)N(C)C)cc2F)CC4)CCN1C [Example 93, (R)-2-cyclobutoxy-N-(N,N-dimethylsulfamoyl)-5-fluoro-4-(8-(3-(methoxymethyl)-4-methylpiperazin-1-yl)-7,10-dimethyl-5-oxo-1,3,4,5-tetrahydro-2H-chromeno[3,4-c]pyridine-3-carbonyl)benzamide]
- IC50 [1]: 10 to 100 nM
- IC50 [2]: 10 to 100 nM
- MTHFD1/MTHFD2 IC50 ratio [2]: G (^ 3 to 9.0)

Structure (SMILES): COC[C@H]1CN(c2cc(Cl)c3c4c(c(=O)oc3c2C)CN(C(=O)c2cc(N(C)C)c(C(=O)NS(=O)(=O)N3CCC(C(F)(F)F)CC3)cc2F)CC4)CCN1C [Example 293, (R)-4-(10-chloro-8-(3-(methoxymethyl)-4-methylpiperazin-1-yl)-7-methyl-5-oxo-1,3,4,5-tetrahydro-2H-chromeno[3,4-c]pyridine-3-carbonyl)-2-(dimethylamino)-5-fluoro-N-((4-(trifluoromethyl)piperidin-1-yl)sulfonyl)benzamide]
- IC50 [1]: 100 to 1000 nM
- IC50 [2]: 10 to 100 nM
- MTHFD1/MTHFD2 IC50 ratio [2]: J (>30)

Structure (SMILES): CCOc1c(C(=O)NS(=O)(=O)N2CC3CC3C2)ccc(C(=O)N2CCc3c(c(=O)oc4c(Cl)c(N5CCN(C)[C@@H](COC)C5)ccc34)C2)c1F (stereo partly drawn) [Example 208, N-((3-azabicyclo[3.1.0]hexan-3-yl)sulfonyl)-4-(7-chloro-8-((R)-3-(methoxymethyl)-4-methylpiperazin-1-yl)-5-oxo-1,3,4,5-tetrahydro-2H-chromeno[3,4-c]pyridine-3-carbonyl)-2-ethoxy-3-fluorobenzamide]
- IC50 [1]: 10 to 100 nM
- IC50 [2]: 10 to 100 nM
- MTHFD1/MTHFD2 IC50 ratio [2]: F (<3)

Structure (SMILES): CCOc1cc(C(=O)N2CCc3c(c(=O)oc4c(C)c(N5CCN(C)[C@@H](COC)C5)cc(C)c34)C2)c(F)cc1C(=O)NS(=O)(=O)N(C)C1CC1 [Example 269, (R)-N-(N-cyclopropyl-N-methylsulfamoyl)-2-ethoxy-5-fluoro-4-(8-(3-(methoxymethyl)-4-methylpiperazin-1-yl)-7,10-dimethyl-5-oxo-1,3,4,5-tetrahydro-2H-chromeno[3,4-c]pyridine-3-carbonyl)benzamide]
- IC50 [1]: 10 to 100 nM
- IC50 [2]: 1 to 10 nM
- MTHFD1/MTHFD2 IC50 ratio [2]: J (>30)

Structure (SMILES): COC[C@H]1CN(c2cc(C)c3c4c(c(=O)oc3c2C)CN(C(=O)c2ccc(C(=O)NS(=O)(=O)C3(C)CC3)c(N3CCC[C@H]3C)c2)CC4)CCN1C [Example 123, 4-(8-((R)-3-(methoxymethyl)-4-methylpiperazin-1-yl)-7,10-dimethyl-5-oxo-1,3,4,5-tetrahydro-2H-chromeno[3,4-c]pyridine-3-carbonyl)-N-((1-methylcyclopropyl)sulfonyl)-2-((R)-2-methylpyrrolidin-1-yl)benzamide]
- IC50 [1]: 100 to 1000 nM
- IC50 [2]: 10 to 100 nM
- MTHFD1/MTHFD2 IC50 ratio [2]: F (<3)

Structure (SMILES): COC[C@H]1CN(c2ccc3c4c(c(=O)oc3c2C)CN(C(=O)c2ccc(C(=O)NS(=O)(=O)C3(C)CC3)c(OC3CCCC3)c2)CC4)CCN1C [Example 8, (R)-2-(cyclopentyloxy)-4-(8-(3-(methoxymethyl)-4-methylpiperazin-1-yl)-7-methyl-5-oxo-1,3,4,5-tetrahydro-2H-chromeno[3,4-c]pyridine-3-carbonyl)-N-((1-methylcyclopropyl)sulfonyl)benzamide]
- IC50 [1]: 10 to 100 nM
- IC50 [2]: 10 to 100 nM
- MTHFD1/MTHFD2 IC50 ratio [2]: F (<3)

Structure (SMILES): COC[C@H]1CN(c2cc(C)c3c4c(c(=O)oc3c2C)CN(C(=O)c2ccc(C(=O)NS(=O)(=O)N(C)C)c(OC)c2F)CC4)CCN1C [Example 134, (R)-N-(N,N-dimethylsulfamoyl)-3-fluoro-2-methoxy-4-(8-(3-(methoxymethyl)-4-methylpiperazin-1-yl)-7,10-dimethyl-5-oxo-1,3,4,5-tetrahydro-2H-chromeno[3,4-c]pyridine-3-carbonyl)benzamide]
- IC50 [1]: 10 to 100 nM
- IC50 [2]: 10 to 100 nM
- MTHFD1/MTHFD2 IC50 ratio [2]: G (^ 3 to 9.0)

Structure (SMILES): COC[C@H]1CN(c2cc(C)c3c4c(c(=O)oc3c2C)CN(C(=O)c2ccc(C(=O)NS(=O)(=O)N(C)C3CCCC3)c(OC)c2F)CC4)CCN1C [Example 238]
- IC50 [1]: 100 to 1000 nM
- IC50 [2]: 10 to 100 nM
- MTHFD1/MTHFD2 IC50 ratio [2]: H (>9.0 to 30)

Structure (SMILES): CCOc1cc(C(=O)N2CCc3c(c(=O)oc4c(C)c(N5CCN(C)[C@@H](COC)C5)cc(Cl)c34)C2)c(F)cc1C(=O)NS(=O)(=O)N1CC2(CCC2)C1 [Example 300, (R)-N-((2-azaspiro[3.3]heptan-2-yl)sulfonyl)-4-(10-chloro-8-(3-(methoxymethyl)-4-methylpiperazin-1-yl)-7-methyl-5-oxo-1,3,4,5-tetrahydro-2H-chromeno[3,4-c]pyridine-3-carbonyl)-2-ethoxy-5-fluorobenzamide]
- IC50 [1]: 100 to 1000 nM
- IC50 [2]: 10 to 100 nM

Structure (SMILES): CCN1CCN(c2ccc3c4c(c(=O)oc3c2C)CN(C(=O)c2ccc(C(=O)NS(=O)(=O)N3CCCC3)c(OC3CCC3)c2F)CC4)C[C@@H]1COC [Example 172, (R)-2-cyclobutoxy-4-(8-(4-ethyl-3-(methoxymethyl)piperazin-1-yl)-7-methyl-5-oxo-1,3,4,5-tetrahydro-2H-chromeno[3,4-c]pyridine-3-carbonyl)-3-fluoro-N-(pyrrolidin-1-ylsulfonyl)benzamide]
- IC50 [1]: 10 to 100 nM
- IC50 [2]: 10 to 100 nM
- MTHFD1/MTHFD2 IC50 ratio [2]: F (<3)

Structure (SMILES): COC[C@H]1CN(c2ccc3c4c(c(=O)oc3c2C)CN(C(=O)c2ccc(C(=O)NS(=O)(=O)C3(C)CC3)c(N3C5CCC3CC5)c2)CC4)CCN1C [Example 17, (R)-2-(7-azabicyclo[2.2.1]heptan-7-yl)-4-(8-(3-(methoxymethyl)-4-methylpiperazin-1-yl)-7-methyl-5-oxo-1,3,4,5-tetrahydro-2H-chromeno[3,4-c]pyridine-3-carbonyl)-N-((1-methylcyclopropyl)sulfonyl)benzamide]
- IC50 [1]: 1 to 10 nM
- IC50 [2]: 10 to 100 nM
- MTHFD1/MTHFD2 IC50 ratio [2]: F (<3)

Structure (SMILES): COC[C@H]1CN(c2cc(C)c3c4c(c(=O)oc3c2C)CN(C(=O)c2cc(C(=O)NS(=O)(=O)N3CCCC3)cc(OC3CCC3)c2F)CC4)CCN1C [Example 166, (R)-3-cyclobutoxy-4-fluoro-5-(8-(3-(methoxymethyl)-4-methylpiperazin-1-yl)-7,10-dimethyl-5-oxo-1,3,4,5-tetrahydro-2H-chromeno[3,4-c]pyridine-3-carbonyl)-N-(pyrrolidin-1-ylsulfonyl)benzamide]
- IC50 [1]: > 5000 nM
- IC50 [2]: 100 to 1000 nM
- MTHFD1/MTHFD2 IC50 ratio [2]: G (^ 3 to 9.0)
